Where a name gives a salt, the structure may show the parent alone.
Target: T1, recombinant sEH (Homo sapiens, UniProt P34913)
T1 construct: made in house; host or cells: Sf9 insect cells
T1 sequence (P34913 1-555): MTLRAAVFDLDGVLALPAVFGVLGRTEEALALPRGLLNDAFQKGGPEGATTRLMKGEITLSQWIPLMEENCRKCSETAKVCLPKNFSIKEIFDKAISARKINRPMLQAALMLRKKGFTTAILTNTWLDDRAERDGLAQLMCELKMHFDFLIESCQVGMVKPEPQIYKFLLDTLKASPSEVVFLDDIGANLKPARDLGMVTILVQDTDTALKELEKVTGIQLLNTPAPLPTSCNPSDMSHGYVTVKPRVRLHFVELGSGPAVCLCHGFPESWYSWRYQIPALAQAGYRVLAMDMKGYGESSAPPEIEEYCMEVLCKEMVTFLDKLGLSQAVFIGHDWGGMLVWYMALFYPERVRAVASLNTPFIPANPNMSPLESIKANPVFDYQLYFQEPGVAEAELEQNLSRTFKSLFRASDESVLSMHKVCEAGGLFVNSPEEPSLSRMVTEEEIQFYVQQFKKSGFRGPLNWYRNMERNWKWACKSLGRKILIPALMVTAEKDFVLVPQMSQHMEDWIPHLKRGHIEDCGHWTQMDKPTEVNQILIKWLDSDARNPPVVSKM
Assay: biochemical screening assay for inhibition of soluble epoxide hydrolase (fluorometric, Phome substrate)
Outline: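 Human sEH from Sf9 cells (2 nM final) was pre-incubated 15 min at 30 °C with compound (0.0001–10 μM), then reacted 60 min at 30 °C with 5 μM Phome in 25 mM Hepes/0.01% albumin. Fluorescence of released 6-methoxy-2-naphthaldehyde was read before substrate and at end; IC50 from % inhibition.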

| IC50 | SMILES |
| --- | --- |
| 0.987 µM | CCOC1COCCC1NC(=O)N[C@H]1CO[C@H]2[C@@H]1OC[C@@H]2Oc1cccnc1C (stereo partly drawn) [Example 79, 1-(3-ethoxy-tetrahydro-pyran-4-yl)-3-[(3S,3aR,6S,6aS)-6-(2-methyl-pyridin-3-yloxy)-hexahydro-furo[3,2-b]furan-3-yl]-urea; hydrochloride] |
| 0.015 µM | O=C(Nc1ccc(OC(F)(F)F)cc1)N[C@H]1CO[C@H]2[C@@H]1OC[C@@H]2C#Cc1ccsc1 [Example 315, 1-((3S,3aR,6S,6aR)-6-Thiophen-3-ylethynyl-hexahydro-furo[3,2-b]furan-3-yl)-3-(4-trifluoromethoxy-phenyl)-urea] |
| 0.001 µM | O=C(NC1CCCCC1)N[C@H]1CO[C@H]2[C@@H]1OC[C@@H]2Oc1ccc(-n2cncn2)cc1 [Example 112, 1-Cyclohexyl-3-[(3S,3aR,6S,6aS)-6-(4-[1,2,4]triazol-1-yl-phenoxy)-hexahydro-furo[3,2-b]furan-3-yl]-urea; trifluoroacetate] |
| 0.005 µM | C[C@@H](NC(=O)N[C@H]1CO[C@H]2[C@@H]1OC[C@@H]2Oc1ccc(F)cc1)c1ccc(F)cc1 [Example 159, 1-[(3S,3aR,6S,6aS)-6-(4-Fluoro-phenoxy)-hexahydro-furo[3,2-b]furan-3-yl]-3-[(R)-1-(4-fluoro-phenyl)-ethyl]-urea] |
| 0.075 µM | O=C(NCc1ccc(F)cc1)NC1COC2C(C=Cc3ccccc3)COC12 [Example 325, 1-(4-Fluoro-benzyl)-3-[(3S,3aR,6R)-6-((S)-(Z)-styryl)-hexahydro-furo[3,2-b]furan-3-yl]-urea] |
| 0.001 µM | Cc1ncccc1O[C@H]1CO[C@H]2[C@@H]1OC[C@@H]2NC(=O)NC1CC(C)(C)CC(C)(C)C1 [Example 273, 1-[(3S,3aR,6S,6aS)-6-(2-Methyl-pyridin-3-yloxy)-hexahydro-furo[3,2-b]furan-3-yl]-3-(3,3,5,5-tetramethyl-cyclohexyl)-urea] |
| 0.192 µM | O=C(N[C@H]1CO[C@H]2[C@@H]1OC[C@@H]2Oc1ccc(F)cc1)N[C@H]1CCCC[C@@H]1OCc1ccccc1 [Example 163, 1-((1S,2S)-2-Benzyloxy-cyclohexyl)-3-[(3S,3aR,6S,6aS)-6-(4-fluoro-phenoxy)-hexahydro-furo[3,2-b]furan-3-yl]-urea] |
| 0.086 µM | Cc1nnc(S[C@H]2CO[C@H]3[C@@H]2OC[C@@H]3NC(=O)NC2CCCCC2)o1 [Example 43, 1-Cyclohexyl-3-[(3S,3aR,6S,6aS)-6-(5-methyl-[1,3,4]oxadiazol-2-ylsulfanyl)-hexahydro-furo[3,2-b]furan-3-yl]-urea] |
| 0.002 µM | Cc1ncccc1O[C@H]1CO[C@H]2[C@@H]1OC[C@@H]2NC(=O)NC1CCCC(C)C1 (stereo partly drawn) [Example 258, 1-(3-Methyl-cyclohexyl)-3-[(3S,3aR,6S,6aS)-6-(2-methyl-pyridin-3-yloxy)-hexahydro-furo[3,2-b]furan-3-yl]-urea] |
| 0.227 µM | O=C(Nc1ccc2c(c1)OCCO2)N[C@H]1CO[C@H]2[C@@H]1OC[C@@H]2/C=C\c1ccccc1 [Example 318, 1-(2,3-Dihydro-benzo[1,4]dioxin-6-yl)-3-[(3S,3aR,6S,6aR)-6-((Z)-styryl)-hexahydro-furo[3,2-b]furan-3-yl]-urea] |
| 0.028 µM | COc1cc(CNC(=O)N[C@H]2CO[C@H]3[C@@H]2OC[C@@H]3Oc2cccnc2C)ccn1 [Example 203, 1-(2-Methoxy-pyridin-4-ylmethyl)-3-[(3S,3aR,6S,6aS)-6-(2-methyl-pyridin-3-yloxy)-hexahydro-furo[3,2-b]furan-3-yl]-urea] |
| 0.019 µM | Cc1ccc(S(=O)(=O)O[C@@H]2CO[C@H]3[C@@H]2OC[C@@H]3NC(=O)NC2CCCCC2)cc1 [Example 2, toluene-4-sulfonic acid (3R,3aS,6S,6aR)-6-(3-cyclohexyl-ureido)-hexahydro-furo[3,2-b]furan-3-yl ester] |
| 0.011 µM | N#Cc1ncccc1O[C@H]1CO[C@H]2[C@@H]1OC[C@@H]2NC(=O)NC1CCCCC1 [Example 40, 1-[(3S,3aR,6S,6aS)-6-(2-Cyano-pyridin-3-yloxy)-hexahydro-furo[3,2-b]furan-3-yl]-3-cyclohexyl-urea] |
| 0.112 µM | O=C(Nc1ccc2c(c1)OCCO2)NC1COC2C(C#Cc3ccccc3)COC12 [Example 295, 1-(2,3-Dihydro-benzo[1,4]-dioxin-6-yl)-3-((3S,3aR,6S,-6aR)-6-phenylethynyl-hexa-hydro-furo[3,2-b]furan-3-yl)-urea] |
| 0.003 µM | CC(=O)c1cccc(O[C@H]2CO[C@H]3[C@@H]2OC[C@@H]3NC(=O)NC2CCCCC2)c1 [Example 106, 1-[(3S,3aR,6S,6aS)-6-(3-Acetyl-phenoxy)-hexahydro-furo[3,2-b]furan-3-yl]-3-cyclohexyl-urea] |
| < 0.001 µM | O=C(NC1CCCCC1)N[C@H]1CO[C@H]2[C@@H]1OC[C@@H]2Sc1cnccn1 [Example 55, 1-Cyclohexyl-3-[(3S,3aR,6S,6aS)-6-(pyrazin-2-ylsulfanyl)-hexahydro-furo[3,2-b]furan-3-yl]-urea] |
| 0.043 µM | Cc1nn(C(C)C)cc1NC(=O)N[C@H]1CO[C@H]2[C@@H]1OC[C@@H]2Oc1cccnc1C [Example 225, 1-(1-Isopropyl-3-methyl-1H-pyrazol-4-yl)-3-[(3S,3aR,6S,6aS)-6-(2-methyl-pyridin-3-yloxy)-hexahydro-furo[3,2-b]furan-3-yl]-urea] |
| < 0.001 µM | CCN(CC)c1ccc(O[C@H]2CO[C@H]3[C@@H]2OC[C@@H]3NC(=O)NC2CCCCC2)cn1 [Example 72, 1-Cyclohexyl-3-[(3S,3aR,6S,6aS)-6-(6-diethylamino-pyridin-3-yloxy)-hexa-hydro-furo[3,2-b]furan-3-yl]-urea] |
| 0.002 µM | CCC(O)(CC)c1cncc(O[C@H]2CO[C@H]3[C@@H]2OC[C@@H]3NC(=O)NC2CCCCC2)c1 [Example 69, 1-cyclohexyl-3-{(3S,3aR,6S,6aS)-6-[5-(1-ethyl-1-hydroxy-propyl)-pyridin-3-yloxy]-hexahydro-furo[3,2-b]furan-3-yl}-urea] |
| 0.017 µM | O=C(Nc1ccc(C(F)(F)F)cc1)NC1COC2C(C=Cc3ccsc3)COC12 [Example 342, 1-[(3S,3aR,6S,6aR)-6-((Z)-2-Thio-phen-3-yl-vinyl)-hexahydro-furo[3,2-b]furan-3-yl]-3-(4-trifluoromethyl-phenyl)-urea] |
| 0.09 µM | O=C(Nc1ccc2c(c1)CCC2)N[C@H]1CO[C@H]2[C@@H]1OC[C@@H]2/C=C\c1ccsc1 [Example 341, 1-Indan-5-yl-3-[(3S,3aR,6S,6aR)-6-((Z)-2-thiophen-3-yl-vinyl)-hexa-hydro-furo[3,2-b]furan-3-yl]-urea] |
| 0.009 µM | O=C(Nc1ccc(F)cc1)NC1COC2C(CCc3ccsc3)COC12 [Example 366, 1-(4-Fluoro-phenyl)-3-[(3S,3aR,6R)-6-((S)-2-thiophen-3-yl-ethyl)-hexa-hydro-furo[3,2-b]furan-3-yl]-urea] |
| 0.019 µM | O=C(NC1CCCCC1)N[C@H]1CO[C@H]2[C@@H]1OC[C@@H]2C#Cc1ccccn1 [Example 300, 1-Cyclohexyl-3-((3S,3aR,6S,-6aR)-6-pyridin-2-ylethynyl-hexahydro-furo[3,2-b]furan-3-yl)-urea; trifluoroacetate] |
| 0.001 µM | Cc1nc(-c2ccc(O[C@H]3CO[C@H]4[C@@H]3OC[C@@H]4NC(=O)NC3CCCCC3)cc2)no1 [Example 121, 1-Cyclohexyl-3-{(3S,3aR,6S,6aS)-6-[4-(5-methyl-[1,2,4]oxadiazol-3-yl)-phenoxy]-hexahydro-furo[3,2-b]furan-3-yl}-urea] |
| 0.262 µM | Cc1ncccc1O[C@H]1CO[C@H]2[C@@H]1OC[C@@H]2NC(=O)NCCc1ccc(S(C)(=O)=O)cc1 [Example 223, 1-[2-(4-Methanesulfonyl-phenyl)-ethyl]-3-[(3S,3aR,6S,6aS)-6-(2-methyl-pyridin-3-yloxy)-hexahydro-furo[3,2-b]furan-3-yl]-urea] |
| 0.001 µM | Cc1ncccc1O[C@H]1CO[C@H]2[C@@H]1OC[C@@H]2NC(=O)N[C@H]1CC[C@@H](C)CC1 [Example 272, 1-(cis-4-Methyl-cyclohexyl)-3-[(3S,3aR,6S,6aS)-6-(2-methyl-pyridin-3-yloxy)-hexahydro-furo[3,2-b]furan-3-yl]-urea] |
| 0.01 µM | Cc1cnc(S[C@H]2CO[C@H]3[C@@H]2OC[C@@H]3NC(=O)NC2CCCCC2)nc1 [Example 50, 1-Cyclohexyl-3-[(3S,3aR,6S,6aS)-6-(5-methyl-pyrimidin-2-ylsulfanyl)-hexahydro-furo[3,2-b]furan-3-yl]-urea; hydrochloride] |
| 1.24 µM | Cc1ncccc1O[C@H]1CO[C@H]2[C@@H]1OC[C@@H]2NC(=O)NCc1ccccn1 [Example 172, 1-[(3S,3aR,6S,6aS)-6-(2-Methyl-pyridin-3-yloxy)-hexahydro-furo[3,2-b]furan-3-yl]-3-pyridin-2-ylmethyl-urea] |
| 0.038 µM | O=C(NC1CCCCC1)N[C@H]1CO[C@H]2[C@@H]1OC[C@@H]2Oc1cccn2ccnc12 [Example 130, 1-Cyclohexyl-3-[(3S,3aR,6S,6aS)-6-(imidazo[1,2-a]pyridin-8-yloxy)-hexa-hydro-furo[3,2-b]furan-3-yl]-urea] |

| SMILES | IC50 |
| --- | --- |
| CCCCOc1ccc(NC(=O)NC2COC3C(C#Cc4ccccc4)COC23)cc1 [Example 283, 1-(4-Butoxy-phenyl)-3-[(3S,3aR,6R)-6-((S)-phenylethynyl)-hexahydro-furo[3,2-b]furan-3-yl]-urea] | 0.07 µM |

Source: patent US9540391B2, “Isomannide derivatives as inhibitors of soluble epoxide hydrolase” (SANOFI, priority 2013, dated 2017)
